Data: ChEMBL document CHEMBL3352089 (J Med Chem, 2014)

Assays:
[1] = Cytotoxicity against human HepG2 cells assessed as cell viability at 10 uM after 4 hrs by Cell-Titer Glo assay; assay type: cell-based; settings: read-out: Activity
[2] = Cytotoxicity against human HepG2 cells assessed as cell viability at 1 uM after 24 hrs by Cell-Titer Glo assay; assay type: cell-based; settings: read-out: Activity
[3] = Cytotoxicity against human HepG2 cells assessed as cell viability at 1 uM after 4 hrs by Cell-Titer Glo assay; assay type: cell-based; settings: read-out: Activity
[4] = Cytotoxicity against human HepG2 cells assessed as cell viability at 10 uM after 24 hrs by Cell-Titer Glo assay; assay type: cell-based; settings: read-out: Activity
[5] = Cytotoxicity against human HepG2 cells assessed as cell viability at 100 uM after 4 hrs by Cell-Titer Glo assay; assay type: cell-based; settings: read-out: Activity
[6] = Cytotoxicity against human HepG2 cells assessed as cell viability at 100 uM after 24 hrs by Cell-Titer Glo assay; assay type: cell-based; settings: read-out: Activity
[7] = tested on: T1, Activin receptor type-1 (Homo sapiens), Q04771 [Q207D]
T1 sequence (whole entry): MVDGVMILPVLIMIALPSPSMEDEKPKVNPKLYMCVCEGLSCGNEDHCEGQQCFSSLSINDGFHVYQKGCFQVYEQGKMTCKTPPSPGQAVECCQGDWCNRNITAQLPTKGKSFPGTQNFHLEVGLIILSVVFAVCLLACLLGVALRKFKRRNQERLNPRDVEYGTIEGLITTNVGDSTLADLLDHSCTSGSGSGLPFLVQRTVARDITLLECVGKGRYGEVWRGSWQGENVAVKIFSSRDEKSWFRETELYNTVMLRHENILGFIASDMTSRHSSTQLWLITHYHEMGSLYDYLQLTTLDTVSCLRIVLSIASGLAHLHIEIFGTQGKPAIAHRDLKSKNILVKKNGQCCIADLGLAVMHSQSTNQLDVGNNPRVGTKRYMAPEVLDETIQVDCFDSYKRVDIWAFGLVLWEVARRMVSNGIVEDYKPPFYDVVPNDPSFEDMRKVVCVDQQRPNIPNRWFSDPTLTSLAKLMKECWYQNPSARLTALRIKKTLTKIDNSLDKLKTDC

Row | Structure (SMILES) | viability at 4 h, 10 µM [1] | viability at 24 h, 1 µM [2] | viability at 4 h, 1 µM [3] | viability at 24 h, 10 µM [4] | viability at 4 h, 100 µM [5] | viability at 24 h, 100 µM [6] | ΔTm [7]
1 | COc1cccc(-c2cc(-c3ccc(N4CCNCC4)cc3)cnc2N)c1 | > 75% | > 75% | > 75% | > 75% | > 75% | – | –
2 | COc1ccc(-c2cc(-c3ccc(N4CCNCC4)cc3)cnc2N)cc1OC | > 75% | > 75% | > 75% | > 75% | > 75% | – | –
3 | COc1cc(-c2cc(-c3ccc(O)cc3)cnc2N)cc(OC)c1OC | > 75% | > 75% | > 75% | > 75% | > 75% | > 75% | –
4 | COc1cc(-c2cnn3cc(-c4ccc(N5CCNCC5)cc4)cnc23)cc(OC)c1OC | > 75% | > 75% | > 75% | – | – | – | –
5 | CS(=O)(=O)CCNCc1ccc(-c2ccc3ncnc(Nc4ccc(OCc5cccc(F)c5)c(Cl)c4)c3c2)o1 [LAPATINIB] | > 75% | > 75% | > 75% | > 75% | > 75% | > 75% | –
6 | c1cc(-c2cnn3cc(-c4ccc(N5CCNCC5)cc4)cnc23)c2cccnc2c1 | > 75% | > 75% | > 75% | > 75% | > 75% | – | –
7 | Cc1cn(-c2cc(NC(=O)c3ccc(C)c(Nc4nccc(-c5cccnc5)n4)c3)cc(C(F)(F)F)c2)cn1 [NILOTINIB] | > 75% | > 75% | > 75% | > 75% | > 75% | > 75% | –
8 | COc1cc(-c2cc(-c3cccc(N4CCNCC4)c3)cnc2N)cc(OC)c1OC | > 75% | > 75% | > 75% | > 75% | > 75% | – | –
9 | Cc1ccc(Nc2nccc(N(C)c3ccc4c(C)n(C)nc4c3)n2)cc1S(N)(=O)=O [PAZOPANIB] | > 75% | > 75% | > 75% | > 75% | > 75% | > 75% | –
10 | COc1cc(-c2cnc(N)c(-c3cc(OC)c(OC)c(OC)c3)c2)ccc1O | > 75% | > 75% | > 75% | > 75% | > 75% | > 75% | –
11 | COc1cc(OC)cc(-c2cc(-c3ccc(N4CCNCC4)cc3)cnc2N)c1 | > 75% | > 75% | > 75% | > 75% | – | – | –
12 | COc1cc(-c2cc(-c3ccc(N4CCNCC4)cc3)cnc2N)ccc1Cl | > 75% | > 75% | > 75% | > 75% | – | – | –
13 | Nc1ncc(-c2ccc(N3CCNCC3)cc2)cc1-c1ccc2c(c1)OCCO2 | > 75% | > 75% | > 75% | > 75% | > 75% | – | –
14 | CCCS(=O)(=O)Nc1ccc(F)c(C(=O)c2c[nH]c3ncc(-c4ccc(Cl)cc4)cc23)c1F [VEMURAFENIB] | > 75% | > 75% | > 75% | > 75% | > 75% | – | –
15 | Cc1nc(Nc2ncc(C(=O)Nc3c(C)cccc3Cl)s2)cc(N2CCN(CCO)CC2)n1 [DASATINIB] | > 75% | > 75% | > 75% | – | – | – | –
16 | CNC(=O)c1cc(Oc2ccc(NC(=O)Nc3ccc(Cl)c(C(F)(F)F)c3)cc2)ccn1 [SORAFENIB] | > 75% | > 75% | > 75% | > 75% | > 75% | – | –
17 | COc1cc(-c2cc(-c3ccc(N4CCNCC4)cc3)cnc2Cl)cc(OC)c1OC | > 75% | > 75% | > 75% | > 75% | > 75% | – | –
18 | COc1cc(-c2cc(-c3ccc(N4CCNCC4)cc3)cnc2N)ccc1C | > 75% | > 75% | > 75% | > 75% | – | – | –

Row | Structure (SMILES) | viability at 4 h, 10 µM [1] | viability at 24 h, 1 µM [2] | viability at 4 h, 1 µM [3] | viability at 24 h, 10 µM [4] | viability at 4 h, 100 µM [5] | viability at 24 h, 100 µM [6] | ΔTm [7]
19 | COc1ccc(-c2cc(-c3ccc(N4CCNCC4)cc3)cnc2N)cc1 | > 75% | > 75% | > 75% | > 75% | – | – | –
20 | Nc1ncc(-c2ccc(N3CCNCC3)cc2)cc1-c1ccnc2ccccc12 | > 75% | > 75% | > 75% | > 75% | > 75% | – | –
21 | COc1cc(-c2cc(-c3cccc(O)c3)cnc2N)cc(OC)c1OC | > 75% | > 75% | > 75% | > 75% | > 75% | – | 13.2 °C
22 | COc1cc(OC)cc(-c2cncc(-c3ccc(N4CCNCC4)cc3)c2)c1 | > 75% | > 75% | > 75% | > 75% | – | – | –
23 | CC(C)Oc1cccc(-c2cc(-c3ccc(N4CCNCC4)cc3)cnc2N)c1 | > 75% | > 75% | > 75% | > 75% | – | – | –
24 | COc1cc2ncnc(Nc3ccc(F)c(Cl)c3)c2cc1OCCCN1CCOCC1 [GEFITINIB] | > 75% | > 75% | > 75% | > 75% | > 75% | > 75% | –
25 | C[C@@H](Oc1cc(-c2cnn(C3CCNCC3)c2)cnc1N)c1c(Cl)ccc(F)c1Cl [CRIZOTINIB] | > 75% | > 75% | > 75% | > 75% | – | – | –
26 | c1ccc2c(-c3cnn4cc(-c5ccc(N6CCNCC6)cc5)cnc34)ccnc2c1 | > 75% | > 75% | > 75% | – | – | – | –
27 | COc1cc(-c2cc(-c3ccc(N4CCNCC4)cc3)cnc2OC)cc(OC)c1OC | > 75% | > 75% | > 75% | > 75% | – | – | –
28 | CNc1ncc(-c2ccc(N3CCNCC3)cc2)cc1-c1cc(OC)c(OC)c(OC)c1 | > 75% | > 75% | > 75% | > 75% | > 75% | – | –
29 | Nc1ncc(-c2cccc(N3CCNCC3)c2)cc1-c1ccnc2ccccc12 | > 75% | > 75% | > 75% | > 75% | – | – | –
30 | Nc1ncc(-c2ccc(N3CCNCC3)cc2)cc1-c1cccc2ncccc12 | > 75% | > 75% | > 75% | > 75% | > 75% | – | –
31 | COc1cc(-c2cc(-c3cccc(NS(C)(=O)=O)c3)cnc2N)cc(OC)c1OC | > 75% | > 75% | > 75% | > 75% | > 75% | > 75% | –
32 | CCN(CC)CCNC(=O)c1c(C)[nH]c(/C=C2\C(=O)Nc3ccc(F)cc32)c1C [SUNITINIB] | > 75% | > 75% | > 75% | – | – | – | –
33 | N#CC[C@H](C1CCCC1)n1cc(-c2ncnc3[nH]ccc23)cn1 [RUXOLITINIB] | > 75% | > 75% | > 75% | > 75% | > 75% | – | –
34 | COc1cc(-c2cc(-c3ccc(N4CCNCC4)cc3)cnc2N(C)C)cc(OC)c1OC | > 75% | > 75% | > 75% | > 75% | > 75% | – | –
35 | C#Cc1cccc(Nc2ncnc3cc(OCCOC)c(OCCOC)cc23)c1 [ERLOTINIB] | > 75% | > 75% | > 75% | > 75% | > 75% | > 75% | –
